{
  "source": "patent US20210283163A1",
  "about": "“COMPOSITIONS AND METHODS FOR THE TREATMENT OF ACUTE AND CHRONIC PRURITIS” (Duke University, priority 2018, published 2021)",
  "key": {"[1]": {"tested_on": "CTCL mice", "assay": "Mouse CTCL xenograft model of chronic itch", "format": "in vivo", "settings": "given 20 days after Myla cell inoculation; for effect on CTCL-evoked chronic itch: hsa-miR-711 inhibitor 100 μM, HC030031 200 μM, A967079 50 μM, peptides 2 mM", "experimental": "Mouse CTCL Xenograft Model of Chronic Itch. We developed a murine xenograft model of cutaneous T cell lymphoma (CTCL) using immune-deficient mice (NOD.CB17-Prkdcscid, 8-10 weeks old, male). CD4^+ MyLa cell line was purchased from Sigma (Ca #95051032). The cell line was established from a plaque biopsy of a person with mycosis fungoides stage II by inclusion of IL-2 and IL-4 in the culture medium. CTCL was generated via intradermal injection of CD4^+ Myla cells (1×10^5 cells/μl, 100 μL) on the nape of the neck. Tumor growth was assessed for 40 days by measurements of tumor diameters.\n(§1) Behavioral Assessment for Scratching (Itch) and Wiping (Pain). Mice were shaved on the cheek or nape after a brief anesthesia with isoflurane. Before experiments, mice were habituated in small plastic chambers (14×18×12 cm) daily for two days. The room temperature and humidity remained stable for all the experiments. […] After the injection, the number of scratches in 60 min was counted. A scratch was counted when a mouse lifted its hind paw to scratch the shaved region and returned the paw to the floor or to the mouth. A bout of wiping was defined as a continuous wiping movement with a forepaw directing at the area of the injection area (Shimada and LaMotte, Pain 2008, 139, 681-687). Scratching and wiping behavior was videoed for 30 min or 60 min using Sony HDR-CX610 camera. The video was subsequently played back offline and the numbers of scratches and wipes were quantified in a blinded manner.\nGeneration of Myla Stable Cell Line Expressing miR-711 Inhibitor. CD4^+ Myla cells were plated at a density of 2×10^5 cells/mL in 2 mL culture media in 6-well plates. For each well, 20 μL of the MISSION Lenti microRNA Inhibitor (hsa-miR-711) lentivirus (Sigma) with a titer of 2.6×10^7 Tu/mL were added. Cell mixtures were incubated at 37° C. for 48 hr, washed with PBS three times, and re-suspended in fresh culture media, and 24 hr later, 1 μg/mL puromycin was added to the cells to select stably transduced cell populations. We tried to grow and passage the cells as much as necessary (usually 3 days) and maintained selection pressure by keeping 1 μg/mL puromycin in the medium. After 4 weeks, a large number of the cells were killed; the remaining cells retained the expression of the plasmid, which stably integrates into the genome of the targeted cells. These cells were used for inoculation to generate the CTCL model for testing the effects of miR-711 inhibitor on chronic itch and tumor growth."}, "[2]": {"tested_on": "mice", "assay": "Persistent itch after intradermal adenovirus (AV) overexpression of hsa-miR-711", "format": "in vivo, mouse", "settings": "10 days after the AV injection, A-967079 50 μM, hsa-miR-711 inhibitor 100 μM, blocking peptide 2 μM", "experimental": "as §1\nmiRNA Measurement by Quantitative Real-Time RT-PCR (qPCR). Total RNA was isolated from serum of CTCL mice or adenovirus-treated mice using Qiazol Lysis Reagent (QIAGEN) together with miRNeasy Serum/Plasma Kit (Park et al., Neuron 2014, 82, 47-54). All RNA samples were immediately used or kept at −80° C. until further processing. To convert mature miRNA into cDNA, 6 μl of total RNA solution were reverse transcribed using the miScript II RT Kit (including polyadenylation of miRNAs and reverse transcription using an oligo-dT that binds to a universal RT-sequence). Specific miRNA levels were quantified by qPCR using miScript SYBR Green Kit including miScript miRNA assay for hsa-miR-711, hsa-miR21, hsamiR155, and hsa-miR-326, together with the universal RT primer, according to the manufacturer's protocol (CFX96 Real-Time system, Bio-Rad). Relative quantities of miRNAs were calculated using the Ct value after normalization to control miRNAs. Caenorhabditis elegans miRNA-39 (cel-miRNA-39) was included as spiked-in control for extracellular miRNA."}, "[3]": {"tested_on": "mice", "assay": "Pain tests for mechanical and thermal sensitivity after intraplantar injection", "format": "in vivo, mouse", "settings": "miR-711 1 mM, AITC 10 mM, 10 μL", "experimental": "Pain Tests for Mechanical and Thermal Sensitivity. Mice were habituated to the environment for at least 2 days before the testing. All the behaviors were tested blindly. […] For testing mechanical sensitivity, we confined mice in boxes (14×18×12 cm) placed on an elevated metal mesh floor and stimulated their hind paws with a series of von Frey hairs with logarithmically increasing stiffness (0.16-2.00 g, Stoelting), presented perpendicularly to the central plantar surface. We determined the 50% paw withdrawal threshold by Dixon's up-down method (Dixon, Annu. Rev. Pharmacol. Toxicol. 1980, 20, 441-462). Thermal sensitivity was tested using Hargreaves radiant heat apparatus (Hargreaves et al., Pain 1988, 32, 77-88) (IITC Life Science). For the radiant heat test, the basal paw withdrawal latency was adjusted to 10-15 s, with a cutoff of 25 s to prevent tissue damage."}, "[4]": {"tested_on": "TG neurons", "assay": "Calcium imaging in TG neurons of Pirt-GCaMP3 mice", "format": "cell-based, mouse", "settings": "histamine 500 μM, CQ 1000 μM, AITC 200 μM; for TG neurons responding (calcium): miR-711 50 μM, 204 neurons", "experimental": "Primary Cultures of Mouse and Human Sensory Neurons. […] Cells were mechanically dissociated with a flame polished Pasteur pipette in the presence of 0.05% DNase I (Sigma).\nCa^2+ Imaging. […] The imaging buffer includes 140 mM NaCl, 10 mM D-(+)-Glucose, 1 mM MgCl2, 2 mM CaCl2, 5 mM KCl, 10 mM HEPES, pH=7.4, osmolarity=320 mOsm/L. Calcium signals were measured using green emitted light in a 3 s interval. Ca ^2+ signal amplitudes were presented as ΔF/F0=(Ft−F0)/F0 as ratio of fluorescence difference (Ft−F0) to basal value (F0). The average fluorescence intensity in the baseline period was taken as F0. Ca ^2+ imaging was also analyzed in HEK293-TRPA1 cell line after loading cells with […] fura2-AM (Invitrogen) for 40 min in the Ca^2+ imaging buffer. Ca^2+ imaging protocol was a ratio metric method with 340/380-nm wavelength light for dual excitation. Data were presented as ΔR/R0, determined as the fraction ΔR (Rt−R0) of the increase of a given ratio over baseline ratio (R0)."}, "[5]": {"tested_on": "naive mice", "format": "in vivo, mouse", "experimental": "as §1"}, "[6]": {"settings": "high concentrations, 5 and 10 mM, 5 μL"}, "[7]": {"settings": "low concentrations, 10 and 100 μM"}},
  "note": "Where two headings read alike, the source gives them in different places.",
  "data": [
    {"compound": "CCC(=N\\O)/C(C)=C/c1ccc(F)cc1", "note": "[A967079, (1E,3E)-1-(4-Fluorophenyl)-2-methyl-1-pentene-3-one oxime]", "values": [
      {"measurement": "effect on CTCL-evoked chronic itch", "setting": "[1]", "result": "suppressed"},
      {"measurement": "effect on hsa-miR-711 AV-induced persistent itch", "setting": "[2]", "result": "Inhibition"}
    ]},
    {"compound": "C=CCN=C=S", "note": "[AITC]", "values": [
      {"measurement": "heat hyperalgesia", "setting": "[3]", "result": "elicited marked hyperalgesia and allodynia"},
      {"measurement": "mechanical allodynia", "setting": "[3]", "result": "elicited marked hyperalgesia and allodynia"},
      {"measurement": "miR-711-responsive TG neurons that also responded", "setting": "[4]", "result": 100, "unit": "%"},
      {"measurement": "TG neurons responding (calcium)", "setting": "[4]", "result": 32.4, "unit": "%"},
      {"measurement": "scratching after intradermal cheek injection", "setting": "[5]; [6]", "result": "not scratching"},
      {"measurement": "wiping after intradermal cheek injection", "setting": "[5]; [6]", "result": "induced wiping"},
      {"measurement": "itch after intradermal cheek injection", "setting": "[5]; [7]", "result": "mild itch"},
      {"measurement": "pain after intradermal cheek injection", "setting": "[5]; [7]", "result": "no pain"},
      {"measurement": "scratching (itch) after intradermal cheek injection", "setting": "[5]; naive mice, 1 mM, 5 μL", "result": "induced both scratching and wiping"},
      {"measurement": "wiping (pain) after intradermal cheek injection", "setting": "[5]; naive mice, 1 mM, 5 μL", "result": "induced both scratching and wiping"}
    ]},
    {"compound": "NH2-FRNELAYPVLTFGQL-COOH (H-FRNELAYPVLTFGQL-OH) [blocking peptide]", "values": [
      {"measurement": "duration of reduction of CTCL-evoked chronic itch", "setting": "[1]; 2 mM", "result": "more than 5 hr"},
      {"measurement": "effect on CTCL-evoked chronic itch", "setting": "[1]", "result": "effectively reduced"},
      {"measurement": "effect on hsa-miR-711 AV-induced persistent itch", "setting": "[2]", "result": "Inhibition"}
    ]},
    {"compound": "miR-711: mmu-miR-711: gggacccggggagagauguaag (SEQ ID NO: 5) (GGGACCCGGGGAGAGAUGUAAG; chemistry not given here)", "values": [
      {"measurement": "heat hyperalgesia", "setting": "[3]", "result": "failed to induce"},
      {"measurement": "mechanical allodynia", "setting": "[3]", "result": "failed to induce"},
      {"measurement": "TG neurons responding (calcium)", "setting": "[4]", "result": 12.3, "unit": "%"},
      {"measurement": "scratching after intradermal cheek injection", "setting": "[5]; 0.01 and 0.1 mM", "result": "mild but significant scratching"},
      {"measurement": "miR-711-induced pruritus in knockout mice", "setting": "[5]; Tlr7−/− mice versus WT", "result": "unaltered"},
      {"measurement": "miR-711-induced acute itch in knockout mice", "setting": "[5]; Trpa1−/− mice versus WT", "result": "abrogated"},
      {"measurement": "pain (wiping) after intradermal cheek injection", "setting": "[5]; all the concentrations tested", "result": "failed to evoke pain (wiping)"},
      {"measurement": "onset (latency) of pruritus", "setting": "[5]; compared with chloroquine (CQ) and histamine, first 60 sec", "result": "very rapid, with a shorter latency"},
      {"measurement": "scratching after intradermal cheek injection", "setting": "[5]; highest dose, 5 mM, 5 μL", "result": "395.2±32.8", "unit": "bouts per hour"},
      {"measurement": "scratching (itch) after intradermal cheek injection", "setting": "[5]; naive mice, 1 mM, 5 μL", "result": "evoked marked scratching"},
      {"measurement": "scratching (itch) after intradermal cheek injection", "setting": "[5]; naive mice, 1 mM, 5 μL, listed as mmu-miR-711", "result": "able to evoke pruritus"}
    ]}
  ]
}
